From patent publication US20030154517A1, “Efficiency agrobacterium-mediated wheat transformation method” (priority 2001, published 2003)
“And” between values parts separate entries of the source, which are not always exact repeats. Equal entries are not always repeated. Where two headings read alike, the source gives them in different places.

Legend:
[1] = test system: immature embryos of wheat; assay: Agrobacterium-mediated wheat transformation, nptII (G418/kanamycin) selection (transformation efficiency); format: cell-based, Triticum aestivum L
Excerpt: (§1) Immature embryos of wheat (Triticum aestivum L) cv Bobwhite were isolated from the immature caryopsis (wheat spikelets) 12-15 days after pollination, and cultured on CM4C (Table 2) for 1-8 days, most typically for 4-6. The embryos without embryogenic callus were selected for Agrobacterium inoculation.
A disarmed Agrobacterium strain C58 (ABI) harboring a binary vector was used for all the experiments. […] The Agrobacterium cells were resuspended in the inoculation medium and the density was adjusted to an OD660 of 1. […] An equal amount of the Agrobacterium cell suspension was added such that the final concentration of Agrobacterium cells was an OD660 of 0.5. In most experiments, pluronic F68 was added to the inoculation mixture at a final concentration of 0.01%. The ratio between the Agrobacterium and immature embryos (IEs) was about 10 mL: 20-200 IEs. The conditions for inoculation were temperatures from about 23° C.-26° C. with a duration from about 5-60 minutes.
(§2) After the inoculation period, the remaining Agrobacterium cells were removed from the explants by using the in-house vacuum equipment. A piece of sterile Whatman No. 1 filter paper (to fit the size of the petri plate) was placed in each of 60×15 or 60×20 mm petri dishes without additional liquid or agar-supplemented media. Two hundred microliters of sterile water was placed in the middle of the filter paper. After 2-3 minutes, the inoculated immature embryos were placed in the plates. Usually, 20-50 explants are grouped as one stack (about 1 cm in size and 60-80 mg/stack), with 4-5 stacks on each plate. The plates were immediately parafilmed and then co-cultivated in the dark at 24° C.-26° C. for 2-3 days.
For nptII selection, immature embryos were isolated, precultured, inoculated, and co-cultured as previously described. After the 3-day co-culture, embryos were transferred to delay culture (solid CM4C2D) media (CM4C media as in Table 2 with 2 mg/L 2,4-D) with 500 mg/L carbenicillin for 7 days in the dark at 25° C. Selection was done in liquid CM4C media (as in Table 2 without the Phytagel) with 100 mg/L carbenicillin and 20 mg/L G418 on a support for 7 days in the dark followed by 7 days in the light (16 hr photoperiod), at 25° C. The calli were then transferred to liquid MMS0.2C media (as in Table 2 without the gelling agent) with 100 mg/L carbenicillin and 25 mg/L G418 on a support for 2 weeks at 25° C. with a 16 hr photoperiod. After 2 weeks, the calli were transferred to liquid MMSOC media (as in Table 2 without the gelling agent) with 100 mg/L carbenicillin and 25 mg/L G418 on a support for 2 to 4 weeks at 25° C. with a 16 hr photoperiod. Plantlets were transferred to solid MMSOC media with 100 mg/L carbenicillin and 25 mg/L G418 in sundae cups for 1 to 4 weeks at 25° C. with a 16 hr photoperiod.

[2] = test system: immature embryos of wheat (Triticum aestivum L) cv Bobwhite; assay: Agrobacterium-mediated wheat transformation, glyphosate selection (transformation efficiency); format: cell-based
Excerpt: as §1
A disarmed Agrobacterium strain C58 (ABI) harboring a binary vector was used for all the experiments. For the control experiments, cultures of Agrobacterium were initiated from glycerol stocks or from a freshly streaked plate and grown overnight at 26° C.-28° C. with shaking (approximately 150 rpm) to mid-log phase (about OD660=1-1.5) in liquid LB medium, pH 7.0 (Miller, 1972) containing 50 mg/L kanamycin, 50 mg/L streptomycin and spectinomycin, and 25 mg/L chloramphenicol with 200 μM acetosyringone (AS). The Agrobacterium cells were resuspended in the inoculation medium and the density was adjusted to an OD660 of 1. The immature embryos cultured in CM4C medium were transferred into sterile petri plates (16×20 mm) or wells of a 6-well cell culture plate (Costar Corporation, Cambridge, Mass.) containing 10 mL of inoculation medium per petri plate or 5 mL per cell culture cluster plate. An equal amount of the Agrobacterium cell suspension was added such that the final concentration of Agrobacterium cells was an OD660 of 0.5. In most experiments, pluronic F68 was added to the inoculation mixture at a final concentration of 0.01%. The ratio between the Agrobacterium and immature embryos (IEs) was about 10 mL: 20-200 IEs. The conditions for inoculation were temperatures from about 23° C.-26° C. with a duration from about 5-60 minutes.
as §2
After a 3-day co-cultivation, the Agrobacterium-infected precultured immature embryos (PCIE) and embryogenic calli were transferred to CM4C medium (Table 2) supplemented with 500 mg/L carbenicillin and cultured for about seven days. This “delay” medium could also contain glyphosate as discussed in Example 4.
The explants were then transferred to CM4C selection medium with 2 mM glyphosate and 500 mg/L carbenicillin for one week in the dark. All the calli were transferred to MMS0.2C (Table 2) supplemented with 0.1 mM glyphosate and 250 mg/L carbenicillin (first regeneration medium) for an additional two weeks of selection with lighting conditions of about 80 μE. […] All the embryogenic calli were transferred to the second regeneration medium MMS0C (Table 2) supplemented with 500 mg/L carbenicillin and 0.02 mM glyphosate. Aromatic amino acids including I-tryptophan, L-tyrosine, and I-phenylalanine (10^−7 mM/amino acid) were added to this medium to facilitate the selection. These tissues were transferred to fresh media every two weeks. […] Once the root system was established, the plants were transferred to soil and subsequently assayed. […]

[3] = test system: immature embryos of wheat (Triticum aestivum L) cv Bobwhite; assay: as above; format: cell-based; remark: listed apart in the source
[4] = Table 19: compound at 20 μM in second regeneration stage (MMSOC media)
[5] = Table 19 compounds at the concentrations tested (2 and/or 20 μM) in MMSOC
[6] = Table 19: compound at 2 μM in second regeneration stage (MMSOC media)

Molecule: [Cl][Co][Cl] [Cobalt chloride]
- % TE [1, 4]: 9.2%
- Independent transgenic events/explants [1, 4]: 19/207
- effectiveness at increasing TE [1, 5]: more effective than the negative control

Molecule: [Cl][Cu][Cl] [Copper chloride]
- % TE [1, 6]: 16.8%
- Independent transgenic events/explants [1, 6]: 37/220
- % TE [1, 4]: 24.2%
- Independent transgenic events/explants [1, 4]: 55/227

Molecule: [Cl-].[Cl-].[Mg+2] [Magnesium chloride]
- % TE [1]: 3.0%
- Independent transgenic events/explants [1]: 7/231
- effectiveness at increasing TE [1]: not effective

Molecule: O=S(=O)([O-])[O-].[Mn+2] [Manganese sulfate]
- % TE [1, 4]: 4.2%
- Independent transgenic events/explants [1, 4]: 8/189
- effectiveness at increasing TE [1, 5]: not effective

Molecule: Copper acetate
- % TE [1]: 23.0%
- Independent transgenic events/explants [1]: 53/230

Molecule: O=C(O)CNCP(=O)(O)O [glyphosate]
- TE % ([2]; 0.02 mM glyphosate in preculture and delay culture media (CM4C), per experiment and Total, listed as gly): 3.7% and 3.8% and 4.9% and 8.3% and 2.4%
- Efficiency % ([2]; 0.1 mM gly in MMS0.2C first regeneration medium, per experiment and Total, listed as gly): 4.7% and 1.6% and 2.3% and 0.0% and 2.9%
- Efficiency % ([2]; Table 9b treatment 1: MMS0.2C + 0.1 Gly, two experiments and Total, listed as Gly): 4.8% and 6.8% and 8.9%
- transformation efficiency ([2]; glyphosate at 0.02 mM in preculture and delay culture media): significantly improved
- TE % ([2]; selection 7 days in CM4C + 2 mM glyphosate, per experiment and Total): 5.2% and 1.5% and 4.4% and 3.1% and 4% and 2.2%
- Efficiency % ([3]; 0.5 mM gly in MMS0.2C first regeneration medium, per experiment and Total, listed as gly): 1.5% and 7.9% and 2.8% and 3.7% and 3.0%
- Efficiency % ([3]; 1.0 mM gly in MMS0.2C first regeneration medium, per experiment and Total, listed as gly): 5.0% and 5.3% and 4.2% and 2.5%
- Efficiency % ([3]; Table 9b treatment 2: MMS0.2C + 0.5 Gly, two experiments and Total, listed as Gly): 7.7% and 10.7% and 13.7%
- TE % ([3]; selection 10 days in CM4C + 2 mM glyphosate, per experiment and Total): 8.6% and 1.25% and 6.4% and 4.8% and 7.3% and 5.3%

Molecule: O=S(=O)([O-])[O-].[Zn+2] [Zinc sulfate]
- Independent transgenic events/explants [1]: 12/219 and 17/107
- effectiveness at increasing TE [1]: not effective
- % TE [1, 6]: 5.5%
- % TE [1, 4]: 15.9%
